In patent US4971983A, “Substituted 2-aminobenzothiazoles and derivatives useful as cerebrovascular agents” (Warner-Lambert Company, priority 1989, dated 1990):
Where two headings read alike, the source gives them in different places.

Experiments:
[1] = test system: MCAO rats; test: Combined Middle Cerebral and Ipsilateral Common Carotid Occlusion in the Rat (MCAO): collateral zone and hemispheric infarct; assay type: in vivo, Adult male Fisher (F-344) rats; details: for response vs control in vivo at 3 mg/kg: 3 mg/kg IP; for response vs control in vivo at 15 mg/kg: 15 mg/kg IP
Excerpt: Occlusion of the proximal part of the middle cerebral artery (MCA) is a common cause of stroke in man and can be accomplished surgically in experimental animals. […] We have combined distal MCA occlusion with ipsilateral common carotid ligation in an attempt to produce reproducible,focal cerebral ischemic infarcts.
The skin on the ventral side of the neck and the left temporal-parietal region was shaved. An incision was made in the neck and the left common carotid artery was doubly ligated and cut between the sutures. The incision was closed with 4-0 silk. Another incision was then made behind the left eye and the skin was held back with retractors. The exposed temporalis muscle was electrocauterized (Jarit Bipolar Coagulator) and partially removed. The upper part of the lower jaw bone was also removed. Deep surgery was performed with the aid of a Zeiss OPMI 99 surgical microscope. A 1 to 2-mm diameter craniotomy was made about 1 mm anterior to where the rostral end of the zygoma fuses to the squamosal bone. To prevent the drill from going through the dura, the burr hole was not drilled completely through the skull. Bone remaining after drilling was removed with forceps. The dura was pierced and reflected with a fine probe.
At this point the rat was injected with 0.3 ml of 2% Evans blue dye in saline via the tail vein. Evans blue binds to serum albumin and will not pass the blood-brain barrier unless damage has occurred, such as damage induced by ischemia. A small hook was then positioned under the MCA and the MCA was lifted away from the cortex. A jeweler-type bipolar forceps was introduced and the MCA was electrocauterized and separated. Gelfoam was put over the craniotomy and the wound was closed with 4-0 silk. The rats were then taken off the halothane and were allowed to wake up. Total anesthesia time was typically 30 minutes.
On Day 2 following MCA occlusion, the rats were anesthetized with ketamine (150 mg/kg, IP) and sacrificed. Cerebral tissue fixation was initiated by perfusion of 10% neutralized, buffered formalin for five minutes. Brains were removed and stored in the fixative until analysis.
For evaluation of the extent of cerebral ischemic injury, the brains were cut coronally in three different locations. The first section was at the level where the MCA was ligated. The other two sections were 2 mm anterior and 2 mm posterior to the first. Using an ausJena Citoval microscope with a drawing tube and an Apple II plus computer with a Houston Instrument digitizing pad, a software routine to measure the area of the ischemic damage as indicated by the extent of Evans blue tissue extravasation was employed. The software package was purchased from R&M Biometrics (Nashville, Tenn.) and is titled Bioquant II. From the lesion areas (mm^2) obtained from the Bioquant II program, we estimated the hemispheric extent (mm^3) of ischemic damage between the anterior and posterior sections by computing and adding the volume of two truncated cones.
The Bioquant II image analysis system was used to quantitate ischemic injury as it was identified by Evans blue extravasation.

[2] = test system: rats; test: Anesthesia in rats after dosing (impaired consciousness, lack of righting reflex; duration); assay type: in vivo, Adult male Fisher (F-344) rats; details: time from administration to regaining consciousness
Excerpt: The duration of anesthesia is that time elapsed between administration of the test substance and the test animal regaining consciousness.

[3] = 10 mg/kg IP, 30 min and 24 h after occlusion, historical controls, read-out: Collateral Zone Infarct (% of Control)
[4] = 10 mg/kg IP, 30 min and 24 h after occlusion, historical controls, read-out: Hemispheric Infarct (% of Control)
[5] = 30 mg/kg IP, 30 min and 24 h after occlusion, historical controls, read-out: Collateral Zone Infarct (% of Control)
[6] = 30 mg/kg IP, 30 min and 24 h after occlusion, historical controls, read-out: Hemispheric Infarct (% of Control)
[7] = 30 min and 24 h after occlusion, historical controls, read-out: Collateral Zone Infarct (% of Control)
[8] = 30 min and 24 h after occlusion, historical controls, read-out: Hemispheric Infarct (% of Control)
[9] = ip, read-out: Collateral Zone Infarct (% of Control)
[10] = ip, read-out: Hemispheric Infarct (% of Control)

Compound | response vs control in vivo at 10 mg/kg [1, 3] [%] | response vs control in vivo at 10 mg/kg [1, 4] [%] | response vs control in vivo at 30 mg/kg [1, 5] [%] | response vs control in vivo at 30 mg/kg [1, 6] [%] | further results
Nc1nc2ccc([N+](=O)[O-])cc2s1 [Compound 8, 2-amino-6-nitrobenzothiazole] | 92 | 93 | 24 | 62 | Anesthesia (duration) ([2]; 30 mg/kg IP): 4 h
CN1CCCC1CCNc1nc2ccccc2s1 (centres unmarked) [Compound 23, 2-[[2-(1-methyl-2-pyrrolidinyl)ethyl]amino]-benzothiazole] | 66 | 84 | 18 | 72 | –
Nc1nc2c(C(F)(F)F)cccc2s1 [Compound 16, 2-amino-4-trifluoromethylbenzothiazole] | 63 | 99 | 15 | 61 | –
Nc1nc2ccc(C(F)(F)F)cc2s1 [Compound 10, 2-amino-6-trifluoromethylbenzothiazole] | 51 | 53 | – | – | response vs control in vivo at 3 mg/kg [1, 7]: 156%; response vs control in vivo at 3 mg/kg [1, 8]: 131%
CCOc1ccc2nc(N)sc2c1 [Compound 6, 2-amino-6-ethoxybenzothiazole] | 94 | 115 | 16 | 59 | –
Cc1cc(C)c2nc(N)sc2c1 [Compound 12, 2-amino-4,6-dimethylbenzothiazole] | 91 | 79 | 68 | 76 | –
Cc1cccc2sc(N)nc12 [Compound 14, 2-amino-4-methylbenzothiazole] | 69 | 72 | 40 | 54 | –
Nc1nc2ccc(Br)cc2s1 [Compound 7, 2-amino-6-bromobenzothiazole] | 69 | 88 | 59 | 68 | Anesthesia (duration) ([2]; 30 mg/kg IP): > 5 h
Nc1nc2cc(C(F)(F)F)ccc2s1 [Compound 19, 2-amino-5-trifluoromethylbenzothiazole] | 48 | 63 | 53 | 79 | –
Nc1nc2c(F)cc(F)cc2s1 [Compound 17, 2-amino-4,6-difluorobenzothiazole] | 137 | 139 | 105 | 115 | –
Nc1nc2ccc(OC(F)(F)F)cc2s1 [Compound 9, 2-amino-6-trifluoromethoxybenzothiazole] | 43 | 66 | 0 | 44 | response vs control in vivo at 3 mg/kg [1, 7]: 117%; response vs control in vivo at 3 mg/kg [1, 8]: 99%; response vs control in vivo at 15 mg/kg [1, 7]: 42%; response vs control in vivo at 15 mg/kg [1, 8]: 82%; Anesthesia (duration) ([2]; 30 mg/kg IP): 1 to 2 h
COc1cccc2sc(N)nc12 [Compound 13, 2-amino-4-methoxybenzothiazole] | 115 | 121 | – | – | response vs control in vivo at 3 mg/kg [1, 7]: 85%; response vs control in vivo at 3 mg/kg [1, 8]: 90%; Anesthesia (duration) ([2]; 10 mg/kg IP): > 5 h
COc1ccc2sc(N)nc2c1 [Compound 18, 2-amino-5-methoxybenzothiazole] | – | – | – | – | response vs control in vivo at 10 mg/kg [1, 9]: 124%; response vs control in vivo at 30 mg/kg [1, 9]: 54%; response vs control in vivo at 10 mg/kg [1, 10]: 117%; response vs control in vivo at 30 mg/kg [1, 10]: 82%
Nc1nc2c(ccc3ccccc32)s1 [Compound 20, 2-amino-naptho[1,2-d]thiazole] | 63 | 84 | 81 | 92 | –
c1ccc(CNc2nc3ccccc3s2)cc1 [Compound 22, N-benzyl-2-benzothiazolamine] | 56 | 76 | 98 | 89 | –
CSc1ccc2nc(N)sc2c1 [Compound 2, 2-amino-6-methylthiobenzothiazole] | 72 | 88 | 100 | 106 | –
CS(=O)(=O)c1ccc2nc(N)sc2c1 [Compound 4, 2-amino-6-methylsulphonylbenzothiazole] | 77 | 83 | 58 | 86 | –
CCNc1nc2ccccc2s1 [Compound 21, 2-ethylaminobenzothiazole] | 62 | 71 | 116 | 89 | –
